Experimental data as given in patent publication US10793563B2, “GCN2 inhibitors and uses thereof” (Merck Patent GmbH, priority 2018, dated 2020).

target: GCN2 kinase (Homo sapiens (Human), UniProt Q9P2K8); assay: GCN2 Enzyme Inhibition Assay (Transcreener ADP2 fluorescence polarization); format: biochemical; details: 280 μM ATP, 200 μM (RS)7 peptide, 4 nM GCN2, 25° C.
Procedure: Compounds were screened for their ability to inhibit GCN2 kinase activity using a Transcreener® ADP^2 fluorescence polarization assay that detects ADP levels (BellBrook Labs, WI). Assays were carried out in a buffer consisting of 25 mM Tris-HCl (pH 7.5), 50 mM NaCl, 10 mM MgCl2 and 1 mM DTT. […] Assays were carried out at 25° C. in the presence of a (typical) final concentration of 4 nM GCN2 kinase. An assay buffer containing GCN2 kinase and (RS)7 was prepared. […] The plate was incubated for 10 minutes at 25° C. prior to the addition of 4.7 μL of ATP stock buffer to initiate the enzyme reaction. The reaction was allowed to proceed for 1 hour at 25° C., prior to the addition of 10 μL detection buffer (consisting of appropriate concentrations of ADP^2 antibody and ADP Alexa633 tracer in 1× stop and detect buffer as supplied by BellBrook Labs). […] Percentage inhibition of enzyme activity was then calculated at each compound dose. IC50 and Ki(app) (using known assay and kinetic parameters) values were calculated from percentage inhibition data using a non-linear, tight-binding algorithm. All data analysis was undertaken using the Screener® software package (Genedata, Switzerland).

Chain of GCN2 kinase (Q9P2K8 whole entry): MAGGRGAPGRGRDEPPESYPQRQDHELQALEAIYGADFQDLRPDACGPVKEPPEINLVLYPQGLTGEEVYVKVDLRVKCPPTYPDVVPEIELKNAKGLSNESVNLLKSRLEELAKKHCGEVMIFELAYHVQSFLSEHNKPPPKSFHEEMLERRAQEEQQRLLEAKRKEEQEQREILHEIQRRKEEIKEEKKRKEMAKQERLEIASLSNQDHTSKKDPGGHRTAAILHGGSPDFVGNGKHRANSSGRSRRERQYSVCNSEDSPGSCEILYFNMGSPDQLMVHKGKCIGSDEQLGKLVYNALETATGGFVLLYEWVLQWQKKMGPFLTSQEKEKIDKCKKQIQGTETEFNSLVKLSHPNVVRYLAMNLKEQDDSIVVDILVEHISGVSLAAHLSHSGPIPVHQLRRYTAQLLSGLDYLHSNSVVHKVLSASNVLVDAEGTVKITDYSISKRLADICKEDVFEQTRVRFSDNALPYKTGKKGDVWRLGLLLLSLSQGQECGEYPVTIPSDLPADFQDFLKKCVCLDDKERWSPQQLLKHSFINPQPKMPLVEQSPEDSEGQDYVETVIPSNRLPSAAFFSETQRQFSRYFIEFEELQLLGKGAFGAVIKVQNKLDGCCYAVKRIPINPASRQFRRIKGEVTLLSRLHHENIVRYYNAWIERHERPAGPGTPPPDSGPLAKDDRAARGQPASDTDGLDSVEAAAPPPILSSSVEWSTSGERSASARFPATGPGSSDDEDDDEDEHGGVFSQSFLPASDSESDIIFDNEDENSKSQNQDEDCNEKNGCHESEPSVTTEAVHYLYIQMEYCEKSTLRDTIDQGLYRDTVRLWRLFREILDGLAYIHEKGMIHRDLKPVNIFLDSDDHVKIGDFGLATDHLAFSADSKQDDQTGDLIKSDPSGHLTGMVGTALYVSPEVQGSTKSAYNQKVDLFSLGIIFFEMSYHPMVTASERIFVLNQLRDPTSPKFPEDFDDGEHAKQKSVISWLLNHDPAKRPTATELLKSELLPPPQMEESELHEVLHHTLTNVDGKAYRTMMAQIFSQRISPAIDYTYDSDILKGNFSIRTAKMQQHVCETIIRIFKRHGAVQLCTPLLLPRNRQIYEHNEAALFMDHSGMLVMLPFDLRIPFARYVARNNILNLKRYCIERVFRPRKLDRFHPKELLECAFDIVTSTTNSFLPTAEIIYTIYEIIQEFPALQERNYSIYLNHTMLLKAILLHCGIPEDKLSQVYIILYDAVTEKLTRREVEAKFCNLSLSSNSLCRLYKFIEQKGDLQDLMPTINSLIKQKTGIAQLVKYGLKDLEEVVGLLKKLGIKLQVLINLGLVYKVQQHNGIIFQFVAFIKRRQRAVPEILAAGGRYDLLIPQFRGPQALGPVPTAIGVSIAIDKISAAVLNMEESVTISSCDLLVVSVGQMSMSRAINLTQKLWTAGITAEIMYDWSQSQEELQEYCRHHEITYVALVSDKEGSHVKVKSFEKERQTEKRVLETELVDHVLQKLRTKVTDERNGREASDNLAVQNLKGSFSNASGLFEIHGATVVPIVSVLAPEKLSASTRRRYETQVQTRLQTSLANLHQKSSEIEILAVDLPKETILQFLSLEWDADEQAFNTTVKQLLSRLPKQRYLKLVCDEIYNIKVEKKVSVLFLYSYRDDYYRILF

IC50	SMILES
0.1 to 1 µM	FC(F)(F)c1ccc2ncc(-c3nccc(N4CCOC5(CNC5)C4)n3)n2c1 [I-412, 8-(2-(6-(trifluoromethyl)imidazo[1,2-a]pyridin-3-yl)pyrimidin-4-yl)-5-oxa-2,8-diazaspiro[3.5]nonane]
< 0.01 µM	FC(F)(F)c1ccc2ncc(-c3ccnc(N4CCN(C[C@H]5CCCOC5)[C@@H](c5cn[nH]c5)C4)n3)n2c1 [I-542, 3-(2-((S)-3-(1H-pyrazol-4-yl)-4-(((R)-tetrahydro-2H-pyran-3-yl)methyl)piperazin-1-yl)pyrimidin-4-yl)-6-(trifluoromethyl)imidazo[1,2-a]pyridine]
0.1 to 1 µM	C[C@@H]1CN(c2ccnc(-c3cnc4ccc(C(F)(F)F)cn34)n2)C[C@H](C)N1C(=O)c1ccncc1 [I-483, (cis-2,6-dimethyl-4-(2-(6-(trifluoromethyl)imidazo[1,2-a]pyridin-3-yl)pyrimidin-4-yl)piperazin-1-yl)(pyridin-4-yl)methanone]
0.01 to 0.1 µM	Fc1ccc(CN2CCN(c3ccnc(-c4cnc5ccc(C(F)(F)F)cn45)n3)CC2c2cn[nH]c2)cc1 (stereo not drawn) [I-457, 3-(4-(4-(4-fluorobenzyl)-3-(1H-pyrazol-4-yl)piperazin-1-yl)pyrimidin-2-yl)-6-(trifluoromethyl)imidazo[1,2-a]pyridine]
0.1 to 1 µM	COCCN1C(C)CN(c2ccnc(-c3cnc4ccc(C(F)(F)F)cn34)n2)CC1C (stereo not drawn) [I-335, 3-(4-(4-(2-methoxyethyl)-3,5-dimethylpiperazin-1-yl)pyrimidin-2-yl)-6-(trifluoromethyl)imidazo[1,2-a]pyridine]
0.1 to 1 µM	CC1(C)CN(c2ccnc(-c3cnc4ccc(C(F)(F)F)cn34)n2)CCN1CC(F)(F)F [I-333, 3-(4-(3,3-dimethyl-4-(2,2,2-trifluoroethyl)piperazin-1-yl)pyrimidin-2-yl)-6-(trifluoromethyl)imidazo[1,2-a]pyridine]
0.01 to 0.1 µM	NC(=O)C1CC12CCCN(c1ccnc(-c3cnc4ccc(Cl)cn34)n1)C2 (stereo not drawn) [I-132, 5-(2-(6-chloroimidazo[1,2-a]pyridin-3-yl)pyrimidin-4-yl)-5-azaspiro[2.5]octane-1-carboxamide]
0.1 to 1 µM	CC1CN(c2ccnc(-c3cnc4ccc(C(F)(F)F)cn34)n2)CC(C)N1 (stereo not drawn) [I-231, 3-(4-(3,5-dimethylpiperazin-1-yl)pyrimidin-2-yl)-6-(trifluoromethyl)imidazo[1,2-a]pyridine]
0.1 to 1 µM	CC(C)(C)OC(=O)NC1CN(c2ccnc(-c3cnc4ccc(Cl)cn34)n2)CC[C@H]1O (stereo in doubt) [I-243, tert-butyl ((3R,4R)-1-(2-(6-chloroimidazo[1,2-a]pyridin-3-yl)pyrimidin-4-yl)-4-hydroxypiperidin-3-yl)carbamate]
0.01 to 0.1 µM	FC1(F)CCC(N2CCN(c3ccnc(-c4cnc5ccc(C(F)(F)F)cn45)n3)CC2c2cn[nH]c2)CC1 (stereo not drawn) [I-460, 3-(4-(4-(4,4-difluorocyclohexyl)-3-(1H-pyrazol-4-yl)piperazin-1-yl)pyrimidin-2-yl)-6-(trifluoromethyl)imidazo[1,2-a]pyridine]
< 0.01 µM	Cc1[nH]ncc1[C@H]1CN(c2ccnc(-c3cnc4ccc(C(F)(F)F)cn34)n2)C[C@@H](C)O1 [I-125, (2R,6S)-2-methyl-6-(5-methyl-1H-pyrazol-4-yl)-4-(2-(6-(trifluoromethyl)imidazo[1,2-a]pyridin-3-yl)pyrimidin-4-yl)morpholine]
0.01 to 0.1 µM	Cc1nnc(C)n1[C@H]1C[C@@H](C)CN(c2nccc(-c3cnc4ccc(C(F)(F)F)cn34)n2)C1 [I-466, 3-(2-((3S,5R)-3-(3,5-dimethyl-4H-1,2,4-triazol-4-yl)-5-methylpiperidin-1-yl)pyrimidin-4-yl)-6-(trifluoromethyl)imidazo[1,2-a]pyridine]
0.01 to 0.1 µM	O=C(O)CC1CCCN(c2ccnc(-c3cnc4ccc(C(F)(F)F)cn34)n2)C1 (stereo not drawn) [I-165, 2-(1-(2-(6-(trifluoromethyl)imidazo[1,2-a]pyridin-3-yl)pyrimidin-4-yl)piperidin-3-yl)acetic acid]
0.01 to 0.1 µM	Cc1[nH]ncc1[C@H]1CN(c2ccnc(-c3cnc4cc(F)c(C5CC5)cn34)n2)C[C@H](C)O1 [I-428, (2S,6S)-4-(2-(6-cyclopropyl-7-fluoroimidazo[1,2-a]pyridin-3-yl)pyrimidin-4-yl)-2-methyl-6-(5-methyl-1H-pyrazol-4-yl)morpholine]
0.01 to 0.1 µM	Cc1[nH]ncc1[C@H]1CN(c2ccnc(-c3cnc4cc(F)c(Cl)cn34)n2)C[C@H](C)O1 [I-539, (2S,6S)-4-(2-(6-chloro-7-fluoroimidazo[1,2-a]pyridin-3-yl)pyrimidin-4-yl)-2-methyl-6-(5-methyl-1H-pyrazol-4-yl)morpholine]
0.1 to 1 µM	Cc1noc(C)c1C(=O)N1CCN(c2ccnc(-c3cnc4ccc(C(F)(F)F)cn34)n2)CC1c1cn[nH]c1 (stereo not drawn) [I-519, (2-(1H-pyrazol-4-yl)-4-(2-(6-(trifluoromethyl)imidazo[1,2-a]pyridin-3-yl)pyrimidin-4-yl)piperazin-1-yl)(3,5-dimethylisoxazol-4-yl)methanone]
0.1 to 1 µM	COC(=O)C1CC12CCCN(c1ccnc(-c3cnc4ccc(Cl)cn34)n1)C2 (stereo not drawn) [I-133, methyl 5-(2-(6-chloroimidazo[1,2-a]pyridin-3-yl)pyrimidin-4-yl)-5-azaspiro[2.5]octane-1-carboxylate]
< 0.01 µM	Fc1ccccc1CN1CCN(c2ccnc(-c3cnc4ccc(C(F)(F)F)cn34)n2)CC1c1cn[nH]c1 (stereo not drawn) [I-459, 3-(4-(4-(2-fluorobenzyl)-3-(1H-pyrazol-4-yl)piperazin-1-yl)pyrimidin-2-yl)-6-(trifluoromethyl)imidazo[1,2-a]pyridine]
0.01 to 0.1 µM	O=C(O)C1CN(c2ccnc(-c3cnc4ccc(C(F)(F)F)cn34)n2)CC(F)(F)C1 (stereo not drawn) [I-205, 5,5-Difluoro-1-[2-(6-trifluoromethyl-imidazo[1,2-a]pyridin-3-yl)-pyrimidin-4-yl]-piperidine-3-carboxylic acid]
0.1 to 1 µM	O=C(C1CC12CC2)N1CCN(c2ccnc(-c3cnc4ccc(C(F)(F)F)cn34)n2)CC1c1cn[nH]c1 (stereo not drawn) [I-468, (2-(1H-pyrazol-4-yl)-4-(2-(6-(trifluoromethyl)imidazo[1,2-a]pyridin-3-yl)pyrimidin-4-yl)piperazin-1-yl)(spiro[2.2]pentan-1-yl)methanone]
0.01 to 0.1 µM	FC(F)(F)c1ccc2ncc(-c3nccc(N4CCN(CC5CC56CC6)C(c5cn[nH]c5)C4)n3)n2c1 (stereo not drawn) [I-475, 3-(4-(3-(1H-pyrazol-4-yl)-4-(spiro[2.2]pentan-1-ylmethyl)piperazin-1-yl)pyrimidin-2-yl)-6-(trifluoromethyl)imidazo[1,2-a]pyridine]
0.01 to 0.1 µM	CC1CN(c2ccnc(-c3cnc4ccc(C(F)(F)F)cn34)n2)CCC1n1cccn1 (stereo not drawn) [I-379, 3-(4-(3-methyl-4-(1H-pyrazol-1-yl)piperidin-1-yl)pyrimidin-2-yl)-6-(trifluoromethyl)imidazo[1,2-a]pyridine]
0.1 to 1 µM	C[C@H]1C[C@@H](N=S(C)(C)=O)CN(c2ccnc(-c3cnc4ccc(S(C)(=O)=O)cn34)n2)C1 [I-312, dimethyl(((3R,5S)-5-methyl-1-(2-(6-(methylsulfonyl)imidazo[1,2-a]pyridin-3-yl)pyrimidin-4-yl)piperidin-3-yl)imino)-λ6-sulfanone]
0.1 to 1 µM	O=C(C1CCOCC1)N1CCN(c2ccnc(-c3cnc4ccc(C(F)(F)F)cn34)n2)CC1c1cn[nH]c1 (stereo not drawn) [I-487, (2-(1H-pyrazol-4-yl)-4-(2-(6-(trifluoromethyl)imidazo[1,2-a]pyridin-3-yl)pyrimidin-4-yl)piperazin-1-yl)(tetrahydro-2H-pyran-4-yl)methanone]
0.1 to 1 µM	CN(C)C(=O)COCC1CN(c2ccnc(-c3cnc4ccc(C(F)(F)F)cn34)n2)CC(C)(C)O1 (stereo not drawn) [I-305, 2-((6,6-dimethyl-4-(2-(6-(trifluoromethyl)imidazo[1,2-a]pyridin-3-yl)pyrimidin-4-yl)morpholin-2-yl)methoxy)-N,N-dimethylacetamide]
0.01 to 0.1 µM	N#CC1(C(=O)n2cc([C@@H]3CN(c4ccnc(-c5cnc6ccc(C(F)(F)F)cn56)n4)CCN3)cn2)CC1 [I-433, (R)-1-(4-(4-(2-(6-(trifluoromethyl)imidazo[1,2-a]pyridin-3-yl)pyrimidin-4-yl)piperazin-2-yl)-1H-pyrazole-1-carbonyl)cyclopropane-1-carbonitrile]

same assay, conditions: Ki(app); 280 μM ATP, 200 μM (RS)7 peptide, 4 nM GCN2, 25° C.

Ki	SMILES
0.1 to 1 µM	O=C1CCN(c2ccnc(-c3cnc4ccc(Cl)cn34)n2)CCN1 [I-26, 1-[2-(6-Chloroimidazo[1,2-a]pyridin-3-yl)pyrimidin-4-yl]-1,4-diazepan-5-one]
0.1 to 1 µM	CS(=O)(=O)N1CCC2(CCCN2c2ccnc(-c3cnc4ccc(C(F)(F)F)cn34)n2)CC1 [I-7, 8-Methylsulfonyl-1-[2-[6-(trifluoromethyl)imidazo[1,2-a]pyridin-3-yl]pyrimidin-4-yl]-1,8-diazaspiro[4.5]decane]
0.1 to 1 µM	Cn1cc(NC(=O)[C@H]2CCCN(c3ccnc(-c4cnc5cc(F)c(Cl)cn45)n3)C2)cn1 [I-77, (S)-1-[2-(6-Chloro-7-fluoro-imidazo[1,2-a]pyridin-3-yl)-pyrimidin-4-yl]-piperidine-3-carboxylic acid (1-methyl-1H-pyrazol-4-yl)-amide]
0.01 to 0.1 µM	Cc1noc([C@@H]2CN(c3ccnc(-c4cnc5ccc(C(F)(F)F)cn45)n3)C[C@H](C)O2)n1 (stereo in doubt) [I-89, 2-methyl-6-(3-methyl-1,2,4-oxadiazol-5-yl)-4-{2-[6-(trifluoromethyl)imidazo[1,2-a]pyridin-3-yl]pyrimidin-4-yl}morpholine]
